Source: patent US9845330B2, “6-nitro-2,3-dihydroimidazo[2,1-b]oxazoles and a process for the preparation thereof” (priority 2013, dated 2017)
≈ marks a conversion by molar mass, not a printed value.

Tests used:
[1] = tested on: M. tuberculosis XDR (resistant to isoniazid, rifampicin, amikacin and moxifloxacin); assay: microbe, parasite or virus in culture; type: cell-based; conditions: Mycobacterium tuberculosis, 504 h, read-out: MIC M. tb XDR
[2] = tested on: M. tuberculosis MDR (resistant to isoniazid and rifampicin); assay: microbe, parasite or virus in culture; type: cell-based; conditions: Mycobacterium tuberculosis, 504 h, read-out: MIC M. tb MDR

Structure (SMILES) | MIC [1] | MIC [2]
C[C@]1(COc2ccccc2-n2cc(-c3ccc(OC(F)(F)F)cc3)nn2)Cn2cc([N+](=O)[O-])nc2O1 [IA23, (R)-2-{2-[4-(4-trifluoromethoxyphenyl)-1H-1,2,3-triazol-1-yl]phenoxymethyl}-2,3-dihydro-2-methyl-6-nitroimidazo[2,1-b]oxazole] | 4 µg/mL (≈ 7.96 µM) | 4 µg/mL (≈ 7.96 µM)
C[C@]1(COc2ccccc2-n2cc(-c3ccc(F)cc3F)nn2)Cn2cc([N+](=O)[O-])nc2O1 [IA24, (R)-2-{2-[4-(2,4-difluorophenyl)-1H-1,2,3-triazol-1-yl]phenoxymethyl}-2,3-dihydro-2-methyl-6-nitroimidazo[2,1-b]oxazole] | 1 µg/mL (≈ 2.2 µM) | 1 µg/mL (≈ 2.2 µM)
C[C@]1(COc2ccc(-n3cc(COc4ccc(OC(F)(F)F)cc4)nn3)cc2)Cn2cc([N+](=O)[O-])nc2O1 [IA25] | 0.12 µg/mL (≈ 0.225 µM) | 0.12 µg/mL (≈ 0.225 µM)
C[C@]1(COc2ccc(-n3cc(COc4ccc(F)cc4)nn3)cc2)Cn2cc([N+](=O)[O-])nc2O1 [IA26] | 0.5 µg/mL (≈ 1.07 µM) | 0.5 µg/mL (≈ 1.07 µM)
C[C@]1(COc2ccc(-n3cc(COc4ccc(C(F)(F)F)cc4)nn3)cc2)Cn2cc([N+](=O)[O-])nc2O1 [IA27] | 0.25 µg/mL (≈ 0.484 µM) | 0.25 µg/mL (≈ 0.484 µM)
C[C@]1(COc2ccc(-n3cc(COc4ccccc4F)nn3)cc2)Cn2cc([N+](=O)[O-])nc2O1 [IA28] | 0.12 µg/mL (≈ 0.257 µM) | 0.12 µg/mL (≈ 0.257 µM)
Cc1ccc(OCc2cn(-c3ccc(OC[C@@]4(C)Cn5cc([N+](=O)[O-])nc5O4)cc3)nn2)cc1 [IA29] | 32 µg/mL (≈ 69.2 µM) | 32 µg/mL (≈ 69.2 µM)
CC(C)c1ccc(OCc2cn(-c3ccc(OC[C@@]4(C)Cn5cc([N+](=O)[O-])nc5O4)cc3)nn2)cc1 [IA30] | 32 µg/mL (≈ 65.2 µM) | 32 µg/mL (≈ 65.2 µM)
CCc1ccc(OCc2cn(-c3ccc(OC[C@@]4(C)Cn5cc([N+](=O)[O-])nc5O4)cc3)nn2)cc1 [IA31] | 0.25 µg/mL (≈ 0.525 µM) | 0.25 µg/mL (≈ 0.525 µM)
CCC(C)c1ccc(OCc2cn(-c3ccc(OC[C@@]4(C)Cn5cc([N+](=O)[O-])nc5O4)cc3)nn2)cc1 (stereo partly drawn) [IA32] | 0.12 µg/mL (≈ 0.238 µM) | 0.12 µg/mL (≈ 0.238 µM)
C[C@]1(COc2cccc(-n3cc(COc4ccc(OC(F)(F)F)cc4)nn3)c2)Cn2cc([N+](=O)[O-])nc2O1 [IA33] | 0.12 µg/mL (≈ 0.225 µM) | 0.12 µg/mL (≈ 0.225 µM)
C[C@]1(COc2cccc(-n3cc(COc4ccc(F)cc4)nn3)c2)Cn2cc([N+](=O)[O-])nc2O1 [IA34] | 0.12 µg/mL (≈ 0.257 µM) | 0.12 µg/mL (≈ 0.257 µM)
C[C@]1(COc2cccc(-n3cc(COc4ccc(C(F)(F)F)cc4)nn3)c2)Cn2cc([N+](=O)[O-])nc2O1 [IA35] | 2 µg/mL (≈ 3.87 µM) | 2 µg/mL (≈ 3.87 µM)
C[C@]1(COc2cccc(-n3cc(COc4ccccc4F)nn3)c2)Cn2cc([N+](=O)[O-])nc2O1 [IA36] | 2 µg/mL (≈ 4.29 µM) | 2 µg/mL (≈ 4.29 µM)
Cc1ccc(OCc2cn(-c3cccc(OC[C@@]4(C)Cn5cc([N+](=O)[O-])nc5O4)c3)nn2)cc1 [IA37] | 4 µg/mL (≈ 8.65 µM) | 4 µg/mL (≈ 8.65 µM)
CC(C)c1ccc(OCc2cn(-c3cccc(OC[C@@]4(C)Cn5cc([N+](=O)[O-])nc5O4)c3)nn2)cc1 [IA38] | 4 µg/mL (≈ 8.15 µM) | 4 µg/mL (≈ 8.15 µM)
C[C@]1(COc2ccccc2-n2cc(COc3ccc(OC(F)(F)F)cc3)nn2)Cn2cc([N+](=O)[O-])nc2O1 [IA39] | 1 µg/mL (≈ 1.88 µM) | 1 µg/mL (≈ 1.88 µM)
C[C@]1(COc2ccccc2-n2cc(COc3ccc(F)cc3)nn2)Cn2cc([N+](=O)[O-])nc2O1 [IA40] | 4 µg/mL (≈ 8.58 µM) | 4 µg/mL (≈ 8.58 µM)
C[C@]1(COc2ccccc2-n2cc(COc3ccc(C(F)(F)F)cc3)nn2)Cn2cc([N+](=O)[O-])nc2O1 [IA41] | 2 µg/mL (≈ 3.87 µM) | 2 µg/mL (≈ 3.87 µM)
C[C@]1(COc2ccccc2-n2cc(COc3ccccc3F)nn2)Cn2cc([N+](=O)[O-])nc2O1 [IA42] | 2 µg/mL (≈ 4.29 µM) | 2 µg/mL (≈ 4.29 µM)

Structure (SMILES) | MIC [1] | MIC [2]
C[C@]1(COc2ccc(-n3nnnc3-c3ccccc3)cc2)Cn2cc([N+](=O)[O-])nc2O1 [IB1, (R)-2-{4-[5-phenyl-1H-tetrazol-1-yl]phenoxymethyl}-2,3-dihydro-2-methyl-6-nitroimidazo[2,1-b]oxazole] | 2 µg/mL (≈ 4.77 µM) | 2 µg/mL (≈ 4.77 µM)
C[C@]1(COc2ccc(-n3nnnc3-c3ccc(OC(F)(F)F)cc3)cc2)Cn2cc([N+](=O)[O-])nc2O1 [IB2, (R)-2-{4-[5-(4-trifluoromethoxyphenyl)-1H-tetrazol-1-yl]phenoxymethyl}-2,3-dihydro-2-methyl-6-nitroimidazo[2,1-b]oxazole] | 2 µg/mL (≈ 3.97 µM) | 2 µg/mL (≈ 3.97 µM)
Cc1ccc(-c2nnnn2-c2ccc(OC[C@@]3(C)Cn4cc([N+](=O)[O-])nc4O3)cc2)cc1 [IB3, (R)-2-{4-[5-(4-methylphenyl)-1H-tetrazol-1-yl]phenoxymethyl}-2,3-dihydro-2-methyl-6-nitroimidazo[2,1-b]oxazole] | 4 µg/mL (≈ 9.23 µM) | 4 µg/mL (≈ 9.23 µM)
C[C@]1(COc2ccc(-n3nnnc3-c3ccc(F)cc3)cc2)Cn2cc([N+](=O)[O-])nc2O1 [IB4, (R)-2-{4-[5-(4-fluorophenyl)-1H-tetrazol-1-yl]phenoxymethyl}-2,3-dihydro-2-methyl-6-nitroimidazo[2,1-b]oxazole] | 4 µg/mL (≈ 9.15 µM) | 4 µg/mL (≈ 9.15 µM)
C[C@]1(COc2ccc(-n3nnnc3-c3ccc(C(F)(F)F)cc3)cc2)Cn2cc([N+](=O)[O-])nc2O1 [IB5, (R)-2-{4-[5-(4-trifluoromethylphenyl)-1H-tetrazol-1-yl]phenoxymethyl}-2,3-dihydro-2-methyl-6-nitroimidazo[2,1-b]oxazole] | 1 µg/mL (≈ 2.05 µM) | 1 µg/mL (≈ 2.05 µM)
CCc1ccc(-c2nnnn2-c2ccc(OC[C@@]3(C)Cn4cc([N+](=O)[O-])nc4O3)cc2)cc1 [IB6, (R)-2-{4-[5-(4-ethylphenyl)-1H-tetrazol-1-yl]phenoxymethyl}-2,3-dihydro-2-methyl-6-nitroimidazo[2,1-b]oxazole] | 2 µg/mL (≈ 4.47 µM) | 2 µg/mL (≈ 4.47 µM)
C[C@]1(COc2ccc(-n3nnnc3Oc3ccc(F)cc3)cc2)Cn2cc([N+](=O)[O-])nc2O1 [IB7, (R)-2-{4-[5-(4-fluorophenoxy)-1H-tetrazol-1-yl]phenoxymethyl}-2,3-dihydro-2-methyl-6-nitroimidazo[2,1-b]oxazole] | 2 µg/mL (≈ 4.41 µM) | 2 µg/mL (≈ 4.41 µM)
C[C@]1(COc2ccc(-n3nnnc3Oc3ccc(C(F)(F)F)cc3)cc2)Cn2cc([N+](=O)[O-])nc2O1 [IB8, (R)-2-{4-[5-(4-trifluoromethylphenoxy)-1H-tetrazol-1-yl]phenoxymethyl}-2,3-dihydro-2-methyl-6-nitroimidazo[2,1-b]oxazole] | 4 µg/mL (≈ 7.95 µM) | 4 µg/mL (≈ 7.95 µM)
Cc1ccc(Oc2nnnn2-c2ccc(OC[C@@]3(C)Cn4cc([N+](=O)[O-])nc4O3)cc2)cc1 [IB9, (R)-2-{4-[5-(4-methylphenoxy)-1H-tetrazol-1-yl]phenoxymethyl}-2,3-dihydro-2-methyl-6-nitroimidazo[2,1-b]oxazole] | 4 µg/mL (≈ 8.9 µM) | 4 µg/mL (≈ 8.9 µM)
C[C@]1(COc2ccc(-n3nnnc3Oc3ccc(OC(F)(F)F)cc3)cc2)Cn2cc([N+](=O)[O-])nc2O1 [IB10, (R)-2-{4-[5-(4-trifluoromethoxyphenoxy)-1H-tetrazol-1-yl]phenoxymethyl}-2,3-dihydro-2-methyl-6-nitroimidazo[2,1-b]oxazole] | 1 µg/mL (≈ 1.93 µM) | 1 µg/mL (≈ 1.93 µM)
C[C@]1(COc2ccc(-c3cc(-c4ccccc4)on3)cc2)Cn2cc([N+](=O)[O-])nc2O1 [IC1, (R)-2-{4-[5-phenylisoxazol-3-yl]phenoxymethyl}-2,3-dihydro-2-methyl-6-nitroimidazo[2,1-b]oxazole] | 0.12 µg/mL (≈ 0.287 µM) | 0.12 µg/mL (≈ 0.287 µM)
CCc1ccc(-c2cc(-c3ccc(OC[C@@]4(C)Cn5cc([N+](=O)[O-])nc5O4)cc3)no2)cc1 [IC2, (R)-2-{4-[5-(4-ethylphenyl)isoxazol-3-yl]phenoxymethyl}-2,3-dihydro-2-methyl-6-nitroimidazo[2,1-b]oxazole] | 2 µg/mL (≈ 4.48 µM) | 2 µg/mL (≈ 4.48 µM)
C[C@]1(COc2ccc(-c3cc(-c4ccc(F)cc4F)on3)cc2)Cn2cc([N+](=O)[O-])nc2O1 [IC3, (R)-2-{4-[5-(2,4-difluorophenyl)isoxazol-3-yl]phenoxymethyl}-2,3-dihydro-2-methyl-6-nitroimidazo[2,1-b]oxazole] | 0.25 µg/mL (≈ 0.55 µM) | 0.25 µg/mL (≈ 0.55 µM)
C[C@]1(COc2ccc(-c3cc(-c4ccccc4F)on3)cc2)Cn2cc([N+](=O)[O-])nc2O1 [IC4, (R)-2-{4-[5-(2-fluorophenyl)isoxazol-3-yl]phenoxymethyl}-2,3-dihydro-2-methyl-6-nitroimidazo[2,1-b]oxazole] | 2 µg/mL (≈ 4.58 µM) | 2 µg/mL (≈ 4.58 µM)
C[C@]1(COc2ccc(-c3cc(-c4ccc(C(F)(F)F)cc4)on3)cc2)Cn2cc([N+](=O)[O-])nc2O1 [IC5, (R)-2-{4-[5-(4-trifluoromethylphenyl)isoxazol-3-yl]phenoxymethyl}-2,3-dihydro-2-methyl-6-nitroimidazo[2,1-b]oxazole] | 1 µg/mL (≈ 2.06 µM) | 1 µg/mL (≈ 2.06 µM)
Cc1ccc(-c2cc(-c3ccc(OC[C@@]4(C)Cn5cc([N+](=O)[O-])nc5O4)cc3)no2)cc1 [IC6, (R)-2-{4-[5-(4-methylphenyl)isoxazol-3-yl]phenoxymethyl}-2,3-dihydro-2-methyl-6-nitroimidazo[2,1-b]oxazole] | 1 µg/mL (≈ 2.31 µM) | 1 µg/mL (≈ 2.31 µM)
COc1ccc(-c2cc(-c3ccc(OC[C@@]4(C)Cn5cc([N+](=O)[O-])nc5O4)cc3)no2)cc1 [IC7, (R)-2-{4-[5-(4-methoxyphenyl)isoxazol-3-yl]phenoxymethyl}-2,3-dihydro-2-methyl-6-nitroimidazo[2,1-b]oxazole] | 1 µg/mL (≈ 2.23 µM) | 1 µg/mL (≈ 2.23 µM)
C[C@]1(COc2ccc(-c3cc(-c4cccc(F)c4)on3)cc2)Cn2cc([N+](=O)[O-])nc2O1 [IC8, (R)-2-{4-[5-(3-fluorophenyl)isoxazol-3-yl]phenoxymethyl}-2,3-dihydro-2-methyl-6-nitroimidazo[2,1-b]oxazole] | 2 µg/mL (≈ 4.58 µM) | 2 µg/mL (≈ 4.58 µM)
C[C@]1(COc2ccc(-c3cc(-c4ccccn4)on3)cc2)Cn2cc([N+](=O)[O-])nc2O1 [IC9, (R)-2-{4-[5-(pyridin-2-yl)isoxazol-3-yl]phenoxymethyl}-2,3-dihydro-2-methyl-6-nitroimidazo[2,1-b]oxazole] | 2 µg/mL (≈ 4.77 µM) | 2 µg/mL (≈ 4.77 µM)
